target: Induced myeloid leukemia cell differentiation protein Mcl-1 (Homo sapiens) (UniProt Q07820); assay: Mcl-1 Noxa peptide disruption concentration-response – biochemical, TR-FRET, dose response (AID 1417); conditions: Mcl-1/Noxa peptide interaction, cell-free TR-FRET (terbium/rhodamine), 2 h; measured here: absolute IC50
Sequence (Q07820 whole entry, looked up): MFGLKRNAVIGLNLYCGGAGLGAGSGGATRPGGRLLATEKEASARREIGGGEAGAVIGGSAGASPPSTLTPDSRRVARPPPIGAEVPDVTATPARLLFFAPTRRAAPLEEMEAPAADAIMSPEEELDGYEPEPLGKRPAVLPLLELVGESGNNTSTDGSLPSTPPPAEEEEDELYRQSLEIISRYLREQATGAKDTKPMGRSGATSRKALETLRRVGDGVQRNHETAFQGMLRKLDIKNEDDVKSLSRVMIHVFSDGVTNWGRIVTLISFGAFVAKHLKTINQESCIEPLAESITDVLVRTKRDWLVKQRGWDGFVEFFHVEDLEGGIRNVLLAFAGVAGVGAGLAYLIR

Compound	IC50
Cc1nnc(Sc2cc(NCCO)c([N+](=O)[O-])c3nonc23)s1	< 0.4 µM
Cc1cccc(/C=C/C(=O)c2ccc(NC3=NCCCS3)cc2)c1	4.9 µM
Cc1csc(NC(=O)c2cc(-c3ccco3)nc3ccccc23)n1	2.91 µM
Cc1ccc(-n2nc(C)cc2NC(=O)COc2cc(C)cc3oc(=O)c4c(c23)CCC4)cc1	> 54 µM
CC1CCCCC1NC(=O)c1ccc2c(c1)[nH]c(=O)n2C1CCCC1 (configuration not stated)	> 54 µM
COc1cc(/C=N/NC(=O)C2c3ccccc3Oc3ccccc32)ccc1O	6.68 µM
CCN(CCO)c1nc(SC)nc2c1sc1nc(-c3ccco3)c3c(c12)CCC3	< 0.4 µM
O=C1NN(c2ccc(F)c(Cl)c2)C(=O)/C1=C\c1cccc(OC(=O)c2cccs2)c1	6.86 µM
CCOC(=O)c1c(C)oc2c1c(C(c1cccnc1)N1CCOCC1)c(O)c1ccccc12 (configuration not stated)	< 0.4 µM
Cc1cc(SCC(=O)N/N=C/c2ccc(O)c(O)c2O)c(C)cc1Br	< 0.4 µM
O=c1c(O)cccc2cc(O)c(O)c(O)c12	< 0.4 µM
O=C(Nc1ccc(N2CCOCC2)cc1)Nc1ccc(Cl)c(Cl)c1	> 54 µM
Cc1cc(C)c2oc(C(=O)Nc3ccc(S(=O)(=O)Nc4nccs4)cc3)cc(=O)c2c1	4.58 µM
Nc1c(C(=O)NCc2ccco2)sc2nc3c(cc12)C(=O)CCC3	2.34 µM
Cc1nc(NC(=O)c2ccccc2)sc1-c1csc(Nc2ccc(C(=O)O)cc2)n1	3.6 µM
COc1ccc(NC(=O)CSc2ncnc3c2sc2ccccc23)c(OC)c1	> 54 µM
Oc1nc(Nc2ccc(F)cc2)sc1/C=C1\C=Nc2ccccc21	4.32 µM
CCc1n[nH]c(=S)n1/N=C/c1cc(OC)cc([N+](=O)[O-])c1O	< 0.4 µM
COc1ccc(NC(=O)c2cc(-c3ccco3)nc3ccccc23)cc1S(=O)(=O)N1CCOCC1	< 0.4 µM
O=C1/C(=C\c2ccccn2)SC(=S)N1c1ccc(S(=O)(=O)Nc2nccs2)cc1	2.69 µM
O=C(CN1C(=O)/C(=C2\SC(=S)N(C3CCS(=O)(=O)C3)C2=O)c2ccccc21)Nc1ccccc1 (configuration not stated)	< 0.4 µM
O=C(Nc1nc(-c2ccco2)c(-c2ccco2)s1)C1CC(=O)N(c2ccc3c(c2)OCCO3)C1 (configuration not stated)	5.49 µM
CCn1c(C)cc(/C=C2\NC(=O)N(Cc3ccc(Cl)cc3)C2=O)c1C	7.52 µM
CC1=C(C#N)C(=O)NC(=O)/C1=C/c1ccc(-c2ccc(S(N)(=O)=O)cc2)o1	< 0.4 µM
COc1cc(/C=N/NC(=O)c2cc(-c3ccco3)nc3ccccc23)cc(OC)c1O	< 0.4 µM
Oc1ccc(Br)cc1-c1cc(-c2ccc(Cl)cc2)n[nH]1	1.68 µM

Compound	IC50
COc1ccc2nc(-n3c(O)c(C4=c5ccccc5=NC4=O)[nH]c3=S)sc2c1	< 0.4 µM
CCOC(=O)c1sc2nc3c(SCC(=O)O)cc(C(=O)c4cc(F)ccc4O)cn3c(=O)c2c1C	2.26 µM
Cc1c(Cl)cnc(NC(=O)COC(=O)c2ccc([N+](=O)[O-])s2)c1Cl	7.01 µM
Cc1ccc(OCCCC(=O)Nc2ccccc2C(F)(F)F)cc1	43.9 µM
O=C1NC(=O)N(Cc2ccc(F)cc2)C(=O)/C1=C\c1ccc([N+](=O)[O-])s1	7.45 µM
O=C(CSc1nnc(COc2ccccc2Cl)o1)NC(=O)NCc1ccco1	8.6 µM
COC(=O)c1c(NC(=O)Cc2cccs2)sc2c1CCCC2	8.95 µM
O=C(Cc1ccc(S(=O)(=O)N2CCOCC2)s1)Nc1nc2c(s1)CCCC2	5.18 µM
Oc1ccccc1C1Nc2cccc3cccc(c23)N1	6.64 µM
Cc1ccc(N2C(=O)NC(=O)/C(=C\c3cnc(-c4ccccc4)nc3)C2=O)cc1	20.2 µM
O=[N+]([O-])c1cc(Cl)cc(/C=N/NC(=S)Nc2ccc(S(=O)(=O)N3CCOCC3)cc2)c1O	< 0.4 µM
CN(C)c1ccc(/C=c2\sc3nc(-c4ccccc4)nn3c2=O)cc1	8.8 µM
O=C(NCc1ccccc1)c1ccc2nc(-c3ccco3)c(-c3ccco3)nc2c1	2.3 µM
Brc1ccc(C2Nc3cccc4cccc(c34)N2)s1	< 0.4 µM
Cc1ccc(C(=O)NNc2c3ccccc3nc3ccccc23)cc1	9.97 µM
CCOc1ccc(N=C2NC(=O)S/C2=C\c2ccc(O)cc2)cc1	1.26 µM
CCOc1ccccc1Nc1nc(-c2sc(NC(=O)c3ccc([N+](=O)[O-])cc3)nc2C)cs1	< 0.4 µM
Oc1ccc(/C=N/Nc2nc(-c3cccnc3)nc3ccccc23)c(O)c1	> 54 µM
N#C/C(=C\c1ccc(C(=O)O)cc1)c1nc2sc3c(c2c(=O)[nH]1)CCCC3	2.95 µM
NC(=O)C1CCN(C2=C(Cl)C(=O)c3ccccc3C2=O)CC1	48.2 µM
O=C(Nc1ccc([N+](=O)[O-])cc1)Nc1nc(-c2ccc(Cl)s2)cs1	1.82 µM
CCNc1nc(NCC)nc(C(=O)NN)n1	< 0.4 µM
Cc1ccc(/C=C2\C(=O)NC(=S)N(c3ccccc3F)C2=O)s1	1.86 µM
CC(=O)Nc1ccc(-c2csc(NC(=O)C3CC(=O)N(c4ccc5c(c4)OCCO5)C3)n2)cc1 (configuration not stated)	3.25 µM
COc1cc(/C=C2\CC/C(=C\c3cc(OC)c(O)c(OC)c3)C2=O)cc(OC)c1O	< 0.4 µM
Cn1c(=O)c2c(nc(NCc3ccco3)n2CC(O)COc2ccccc2)n(C)c1=O (configuration not stated)	> 54 µM

— PubChem BioAssay AID1417 (Emory University Molecular Libraries Screening Center, 2008)
